This is an account of results in the supplement of paper PMC12317010.

The data set is described as follows: collision cross section in nitrogen (drift tube, single-field); higher = larger gas-phase ion size.
[1] abbreviates: ion type: [M+Na], ion source: ESI, ion mode: Positive.
The mark [2] stands for this setting: ion type: [M+H], ion source: APCI, ion mode: Positive.
[3] abbreviates: ion type: [M+H], ion source: ESI, ion mode: Positive.
The mark [4] stands for this setting: ion type: [M-H], ion source: ESI, ion mode: Negative.

Counter-ions that a name gives are not always drawn.
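Further: chemical standards at 10 µM analysed by drift tube IMS-QTOF MS in about 3.95 torr nitrogen, mean of duplicate injections differing ≤1%, mass error below 10 ppm.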

Turning to `CCCCOCCOCCOC(C)=O` [Diethylene glycol monobutyl ether acetate], the “collision cross section in nitrogen” value under setting [1] came to 150.1 Å².

On to `CCc1c(C)cc(N)c(CC)c1N` [Diethylmethylbenzenediamine], for which the “collision cross section in nitrogen” value was 140.6 Å² under setting [2], 141.3 Å² under setting [3] and 145.3 Å² under setting [1].

On to `CCC(=O)Oc1ccc(/C(CC)=C(\CC)c2ccc(OC(=O)CC)cc2)cc1` [Diethylstilbestrol dipropionate], for which the “collision cross section in nitrogen” value under setting [1] was found to be 193.9 Å².

With `CC/C(=C(/CC)c1ccc(O)cc1)c1ccc(O)cc1` [Diethylstilbestrol], the “collision cross section in nitrogen” value under setting [4] turned out to be 176.2 Å².

Consider `Cn1c(-c2ccccc2)cc(-c2ccccc2)[n+]1C` [Difenzoquat metilsulfate], for which the “collision cross section in nitrogen” value reads like this: (ion source: APCI, ion mode: Positive, ion type: [M]+ (permanent cation)) 160 Å²; (ion source: ESI, ion mode: Positive, ion type: [M]+ (permanent cation)) 160.8 Å².

Turning to `O=C(NC(=O)c1c(F)cccc1F)Nc1ccc(Cl)cc1` [Diflubenzuron], the “collision cross section in nitrogen” value worked out at 177.4 Å² under setting [1] and 169.5 Å² under setting [4].

As to `O=C(Nc1ccc(F)cc1F)c1cccnc1Oc1cccc(C(F)(F)F)c1` [Diflufenican], the “collision cross section in nitrogen” value is 184.7 Å² under setting [2], 189.1 Å² under setting [3] and 180.6 Å² under setting [4].

On to `CC(=NNC(=O)Nc1cc(F)cc(F)c1)c1ncccc1C(=O)O` [Diflufenzopyr-sodium], for which, under setting [1], the “collision cross section in nitrogen” value was 182.3 Å².

Turning to `CC(=NNC(=O)Nc1cc(F)cc(F)c1)c1ncccc1C(=O)O` [Diflufenzopyr], under setting [1], the “collision cross section in nitrogen” value is 181.6 Å².

Consider `COc1ccc(-n2nc(C(F)F)cc2-c2ccc(S(C)=O)cc2)cc1` (configuration not stated) [Difpas-pyrazole], for which the “collision cross section in nitrogen” value is given as 187.8 Å² under setting [2] and 187.4 Å² under setting [3].

Consider `C[C@]12CC[C@H](O)C[C@H]1CC[C@@H]1[C@@H]2C[C@@H](O)[C@]2(C)[C@@H](C3=CC(=O)OC3)CC[C@]12O` [Digoxigenin], for which the “collision cross section in nitrogen” value under setting [1] came to 220.7 Å².

Consider `C[C@H]1O[C@@H](O[C@H]2[C@@H](O)C[C@H](O[C@H]3[C@@H](O)C[C@H](O[C@H]4CC[C@@]5(C)[C@H](CC[C@@H]6[C@@H]5C[C@@H](O)[C@]5(C)[C@@H](C7=CC(=O)OC7)CC[C@]65O)C4)O[C@@H]3C)O[C@@H]2C)C[C@H](O)[C@@H]1O` [Digoxin], for which the “collision cross section in nitrogen” value came out at 276.8 Å² under setting [1] and 269.7 Å² under setting [4].

For `CCCCCCCOC(=O)c1ccccc1C(=O)OCCCCCCC` [Diheptyl phthalate], the “collision cross section in nitrogen” value under setting [1] is 209.9 Å².

Take `CCCCCCOC(=O)CCCCC(=O)OCCCCCC` [Dihexyl hexanedioate]: under setting [1], the “collision cross section in nitrogen” value was 202.5 Å².

`CCCCCCOC(=O)CCCCCCCC(=O)OCCCCCC` [Dihexyl nonanedioate]: the “collision cross section in nitrogen” value under setting [1] came to 210.8 Å².

Consider `CCCCCCOC(=O)c1ccccc1C(=O)OCCCCCC` [Dihexyl phthalate], for which the “collision cross section in nitrogen” value under setting [1] was 202.6 Å².

For the compound `Cc1ccc(S(=O)(=O)C(I)I)cc1` [Diiodomethyl 4-methylphenyl sulfone], the “collision cross section in nitrogen” value under setting [4] was found to be 151.9 Å².

As for `CC(C)COC(=O)CCCCC(=O)OCC(C)C` [Diisobutyl adipate], the “collision cross section in nitrogen” value under setting [1] is on record as 179.8 Å².

On to `CC(C)COC(=O)c1ccccc1C(=O)OCC(C)C` [Diisobutyl phthalate], for which the “collision cross section in nitrogen” value under setting [1] is listed as 181.8 Å².

For `CC(C)CCCCCCCOC(=O)c1ccccc1C(=O)OCCCCCCCC(C)C` [Diisodecyl phthalate], the “collision cross section in nitrogen” value under setting [1] turned out to be 226.5 Å².

For the compound `CC(C)CCCCCCOC(=O)CCCCC(=O)OCCCCCCC(C)C` [Diisononyl adipate], the “collision cross section in nitrogen” value under setting [1] worked out at 219.4 Å².

For the compound `CC(C)CCCCCCOC(=O)C1CCCCC1C(=O)OCCCCCCC(C)C` (configuration not stated) [Diisononyl cyclohexane-1,2-dicarboxylate], under setting [1], the “collision cross section in nitrogen” value came out at 220.8 Å².

For `CC(O)CNCC(C)O` (configuration not stated) [Diisopropanolamine], under setting [3], the “collision cross section in nitrogen” value was 128.2 Å².

Consider `CC(C)OC(=O)c1ccccc1C(=O)OC(C)C` [Diisopropyl phthalate], for which the “collision cross section in nitrogen” value under setting [1] turned out to be 169.9 Å².

With `CC(C)(C)c1n[nH]c(=O)n(N)c1=O` [Diketometribuzin], under setting [4], the “collision cross section in nitrogen” value is 139.3 Å².

For the compound `COc1ccc([C@@H]2Sc3ccccc3N(CCN(C)C)C(=O)[C@@H]2OC(C)=O)cc1` [Diltiazem hydrochloride], the “collision cross section in nitrogen” value reads like this: under setting [3], 197.8 Å²; under setting [1], 203.2 Å².

As to `CCNc1nc(NC(C)C(C)C)nc(SC)n1` (configuration not stated) [Dimethametryn], the “collision cross section in nitrogen” value by setting is: under setting [2], 165.4 Å²; under setting [3], 165 Å²; under setting [4], 166.9 Å².

For the compound `COCC(C)N(C(=O)CCl)c1c(C)csc1C` (configuration not stated) [Dimethenamid], the “collision cross section in nitrogen” value is, setting by setting: under setting [2], 155.2 Å²; under setting [3], 155.9 Å²; under setting [1], 167.9 Å².

Regarding `COc1ccc(C(=CC(=O)N2CCOCC2)c2ccc(Cl)cc2)cc1OC` [Dimethomorph], the “collision cross section in nitrogen” value under setting [2] worked out at 200.7 Å², the “collision cross section in nitrogen” value under setting [3] turned out to be 199.2 Å² and the “collision cross section in nitrogen” value under setting [1] is 208 Å².

Turning to `COC(=O)CCSCCC(=O)OC` [Dimethyl 3,3'-thiodipropionate], the “collision cross section in nitrogen” value under setting [1] was 146.5 Å².

`COP(=O)(CCC(=O)NCO)OC` [Dimethyl (3-((hydroxymethyl)amino)-3-oxopropyl)phosphonate]: the “collision cross section in nitrogen” value under setting [1] was found to be 144 Å².

With `COC(=O)CCCCCCCC(=O)OC` [Dimethyl nonanedioate], the “collision cross section in nitrogen” value under setting [1] was 155.6 Å².

As to `COP(=O)(O)OC` [Dimethyl phosphate], the “collision cross section in nitrogen” value under setting [4] is reported as 120.6 Å².

With `Cc1cc(OC(=O)N(C)C)nn1C(=O)N(C)C` [Dimetilan], the “collision cross section in nitrogen” value under setting [2] is recorded as 152.5 Å², the “collision cross section in nitrogen” value under setting [3] is reported as 153.1 Å² and the “collision cross section in nitrogen” value under setting [1] is listed as 157.9 Å².

On to `CC(C)(C)C(O)/C(=C\c1ccc(Cl)cc1Cl)n1cncn1` (configuration not stated) [Diniconazole], for which the “collision cross section in nitrogen” value by setting is: under setting [2], 177.9 Å²; under setting [3], 177.1 Å².

Consider `CCN(CC)c1c([N+](=O)[O-])cc(C(F)(F)F)c(N)c1[N+](=O)[O-]` [Dinitramine], for which, under setting [4], the “collision cross section in nitrogen” value is recorded as 159.7 Å².

On to `CC(C)(C)c1cc([N+](=O)[O-])cc([N+](=O)[O-])c1O` [Dinoterb], for which the “collision cross section in nitrogen” value under setting [4] is on record as 150.1 Å².

Regarding `CCCCCCCCOC(=O)CCCCCCCCC(=O)OCCCCCCCC` [Dioctyl sebacate], the “collision cross section in nitrogen” value by setting is: under setting [3], 224.6 Å²; under setting [1], 225.4 Å².

With `CNC(=O)Oc1ccccc1C1OCCO1` [Dioxacarb], the “collision cross section in nitrogen” value under setting [1] amounted to 151.9 Å².

Regarding `C=CC(=O)OCC(CO)(COCC(COC(=O)C=C)(COC(=O)C=C)COC(=O)C=C)COC(=O)C=C` [Dipentaerythritol pentaacrylate], under setting [1], the “collision cross section in nitrogen” value came to 217.9 Å².

For `OCC(CO)(CO)COCC(CO)(CO)CO` [Dipentaerythritol], the “collision cross section in nitrogen” value is listed as 154.2 Å² under setting [3], 157.9 Å² under setting [1] and 154.6 Å² under setting [4].

Turning to `CCCCCOC(=O)c1ccccc1C(=O)OCCCCC` [Dipentyl phthalate], the “collision cross section in nitrogen” value under setting [1] is 193.4 Å².

As for `CN(C)C(=O)C(c1ccccc1)c1ccccc1` [Diphenamid], the “collision cross section in nitrogen” value by setting is: under setting [2], 154.1 Å²; under setting [3], 154.7 Å²; under setting [1], 164.6 Å².

For `CN(C)CCOC(c1ccccc1)c1ccccc1` [Diphenhydramine hydrochloride], the “collision cross section in nitrogen” value under setting [1] is recorded as 168.8 Å².

Regarding `O=P(O)(Oc1ccccc1)Oc1ccccc1` [Diphenyl phosphate], the “collision cross section in nitrogen” value runs as follows: under setting [3], 156.5 Å²; under setting [4], 153.6 Å².

In the case of `O=C(Oc1ccccc1)c1ccccc1C(=O)Oc1ccccc1` [Diphenyl phthalate], the “collision cross section in nitrogen” value under setting [1] was determined as 181.1 Å².

On to `Cc1cc(C)c(C(=O)P(=O)(c2ccccc2)c2ccccc2)c(C)c1` [Diphenyl(2,4,6-trimethylbenzoyl)phosphine oxide], for which the “collision cross section in nitrogen” value under setting [1] turned out to be 191.1 Å².

For `c1ccc(Nc2ccccc2)cc1` [Diphenylamine], the “collision cross section in nitrogen” value under setting [3] came to 137.8 Å² and the “collision cross section in nitrogen” value (ion type: [M+], ion source: APCI, ion mode: Positive) came out at 133.9 Å².

For the compound `O=C1NC(=O)C(c2ccccc2)(c2ccccc2)N1` [Diphenylhydantoin sodium], the “collision cross section in nitrogen” value under setting [4] was determined as 160.6 Å².

On to `CC1(C)OC[C@@H]2O[C@@]3(C(=O)O)OC(C)(C)O[C@H]3[C@@H]2O1` [Diprogulic acid], for which the “collision cross section in nitrogen” value under setting [1] turned out to be 160.6 Å² and the “collision cross section in nitrogen” value under setting [4] is 162.8 Å².

In the case of `CCCOC(=O)c1ccc(C(=O)OCCC)nc1` [Dipropyl 2,5-pyridinedicarboxylate], the “collision cross section in nitrogen” value was found to be 163.2 Å² under setting [2], 163.2 Å² under setting [3] and 178.6 Å² under setting [1].

For `CCCOC(=O)c1c(Cl)c(Cl)c(Cl)c(Cl)c1C(=O)OCCC` [Dipropyl 3,4,5,6-tetrachlorobenzene-1,2-dicarboxylate], under setting [1], the “collision cross section in nitrogen” value is 191.8 Å².

As to `CCCOC(=O)CCCCC(=O)OCCC` [Dipropyl hexanedioate], under setting [1], the “collision cross section in nitrogen” value was 168.6 Å².

For `Cc1c(N(C)CS(=O)(=O)O)c(=O)n(-c2ccccc2)n1C` [Dipyrone monohydrate], the “collision cross section in nitrogen” value under setting [4] is 173.9 Å².
